Assay [1] has as its system Streptomyces murinus (DSM 40091). Description: microbe, parasite or virus in culture. It is filed as cell-based. The following applies: 28° C., 20 μl of 1 mg/ml test solution on 6 mm filter, 1 to 3 days. The method, then:
(§1) The compounds were dissolved in water with 10% MeOH to a final concentration of 1 mg/ml. For the bioassay sterile Nunc plates with a size of 24×24 cm were used. For one plate 200 ml of agar were used. The agar was cooled after autoclaving to 55° C. and 2-4 ml of culture suspension of the test organism were added before plating. To each plate 64 filter plates with 6 mm in diameter were added. To each filter 20 μl of the test solution were added and incubated for 1 to 3 days at 28° C. or 37° C. The inhibition zone in mm was reported. For a detailed description of the methods, see Bauer et al., Amer. J. Clin. Pathol. 1966, 45, 493-496; Müller & Melchinger, Methoden in der Mikrobiologie, Franckhsche Verlagshandlung, Stuttgart (1964); Mueller & Hinton, Proc. Soc. Expt. Biol. Med. 1941, 48, 330-333.

Assay [2] has as its system Bacillus subtilis (ATCC 6633). Description: microbe, parasite or virus in culture. Conditions: 37° C., 20 μl of 1 mg/ml test solution on 6 mm filter, 1 to 3 days. Type of assay: cell-based. The protocol: as §1
The test system of assay [3] is SNI mouse model of neuropathic pain. The assay can be described thus: Spared nerve injury (SNI) mouse model of neuropathic pain, tactile allodynia by automatic von Frey test. Type of assay: in vivo, C57B6 mice. Conditions: 3 mg/kg intravenous single application. From the text: Labyrinthopeptin A1 was studied in the spared nerve injury (SNI) mouse model of neuropathic pain in order to proof the activity on tactile allodynia. Under general anesthesia, the two major branches of the sciatic nerve in adult male C57B6 mice (weight: 22.8 g+/−0.35 SEM) have been ligated and transsected, with the sural nerve left intact. Tactile allodynia has been determined with the automatic von Frey test: using a dump needle stick, the plantar skin of hind paws was exposed to a pressure stimulus of increasing intensity up to 5 g. The force in grams at which the animal responded with hindpaw withdrawal was used as a read-out for tactile allodynia. The study was performed 7 days after nerve lesion over 6 hours with an additional measurement after 24 hours. Within two days after nerve transsection, tactile allodynia developed completely and remained stable over at least two weeks. The compound was administered intravenous as a single application (3 mg/kg). As a vehicle for the intravenous application was the 1:1:18 (ethanol:solutol: phosphate buffered saline) vehicle chosen.
The effect was gone 24 hours after application. […] The percent benefit of the treatment was evaluated using the |AUC1-6 hour| values of the ipsilateral vehicle group (0% benefit) and all |AUC1-6 hour| values of the contralateral sides of all three groups (100% benefit=maximal possible effect). […]

Molecules are shown by their SMILES.

`C/C=C1\NC(=O)[C@H](Cc2ccccc2)NC(=O)[C@@H]2CCCN2C(=O)[C@H](C(C)C)NC(=O)[C@H](Cc2c[nH]c3ccccc23)NC(=O)[C@]23CSC[C@H](NC1=O)C(=O)N[C@H](C(=O)O)CSSC[C@@H](NC(=O)[C@@H]1CSC[C@]4(C[C@H](N)C(=O)N[C@@H](CC(N)=O)C(=O)N[C@@H](C)C(=O)N4)C(=O)N[C@@H](C(C)C)C(=O)N[C@@H](Cc4c[nH]c5ccccc45)C(=O)N[C@@H](CCC(=O)O)C(=O)N1)C(=O)N[C@@H](C2)C(=O)N[C@@H]([C@@H](C)O)C(=O)NCC(=O)N3` [Labyrinthopeptin A1]: the “inhibition zone, Streptomyces murinus (DSM 40091)” value (“inhibition zone … (DSM 40091)” below) in assay [1] turned out to be 13 mm. Also, in assay [2], the “inhibition zone, Bacillus subtilis (ATCC 6633)” value (“inhibition zone … (ATCC 6633)” below) amounted to 16.5 mm. In assay [3] (7 days after nerve lesion, 0% = ipsilateral vehicle, 100% = contralateral sides), the “percent benefit of the treatment from |AUC1-6 hour| of paw withdrawal threshold” value was 95 % benefit. For the same compound, the “treatment effect on delta |AUC1-6 hour| of paw withdrawal threshold (1-way ANOVA, Dunnett analysis)” value in assay [3] (vs vehicle) was “significant treatment effects”.
`C/C=C1\NC(=O)[C@H](Cc2ccccc2)NC(=O)[C@@H]2CCCN2C(=O)[C@H](C(C)C)NC(=O)[C@H](Cc2c[nH]c3ccccc23)NC(=O)[C@]23CSC[C@H](NC1=O)C(=O)N[C@H](C(=O)O)CSSC[C@@H](NC(=O)[C@@H]1CSC[C@]4(C[C@H](NC(=O)OC(C)(C)C)C(=O)N[C@@H](CC(N)=O)C(=O)N[C@@H](C)C(=O)N4)C(=O)N[C@@H](C(C)C)C(=O)N[C@@H](Cc4c[nH]c5ccccc45)C(=O)N[C@@H](CCC(=O)O)C(=O)N1)C(=O)N[C@@H](C2)C(=O)N[C@@H]([C@@H](C)O)C(=O)NCC(=O)N3` [Labyrinthopeptin A1 derivative, Ex. 16]: the “inhibition zone … (DSM 40091)” value in assay [1] came to 0 mm. The “inhibition zone … (ATCC 6633)” value in assay [2] is 9 mm.
For the compound `CN(C)[C@@H]1C(O)=C(C(N)=O)C(=O)[C@@]2(O)C(O)=C3C(=O)c4c(O)cccc4[C@@](C)(O)[C@H]3C[C@@H]12` [Tetracycline, reference compound], the zone of inhibition at 1000 µg/mL in assay [1] (Streptomyces murinus, DSM40091) turned out to be 24 mm; in assay [2] (Bacillus subtilis, ATCC6633), 32 mm.
Take `C/C=C1\NC(=O)[C@H](Cc2ccccc2)NC(=O)[C@@H]2CCCN2C(=O)[C@H](C(C)C)NC(=O)[C@H](Cc2c[nH]c3ccccc23)NC(=O)[C@]23CSC[C@H](NC1=O)C(=O)N[C@H](C(=O)O)CSSC[C@@H](NC(=O)[C@@H]1CSC[C@]4(C[C@H](NC(=O)OCCCCC)C(=O)N[C@@H](CC(N)=O)C(=O)N[C@@H](C)C(=O)N4)C(=O)N[C@@H](C(C)C)C(=O)N[C@@H](Cc4c[nH]c5ccccc45)C(=O)N[C@@H](CCC(=O)O)C(=O)N1)C(=O)N[C@@H](C2)C(=O)N[C@@H]([C@@H](C)O)C(=O)NCC(=O)N3` [Labyrinthopeptin A1 derivative, Ex. 18]: the “inhibition zone … (DSM 40091)” value in assay [1] is 7 mm. Also, the “inhibition zone … (ATCC 6633)” value in assay [2] is 8 mm.
With `C/C=C1\NC(=O)[C@H](Cc2ccccc2)NC(=O)[C@@H]2CCCN2C(=O)[C@H](C(C)C)NC(=O)[C@H](Cc2c[nH]c3ccccc23)NC(=O)[C@]23CSC[C@H](NC1=O)C(=O)N[C@H](C(=O)NCc1ccccc1)CSSC[C@@H](NC(=O)[C@@H]1CSC[C@]4(C[C@H](NC(=O)OC(C)(C)C)C(=O)N[C@@H](CC(N)=O)C(=O)N[C@@H](C)C(=O)N4)C(=O)N[C@@H](C(C)C)C(=O)N[C@@H](Cc4c[nH]c5ccccc45)C(=O)N[C@@H](CCC(=O)NCc4ccccc4)C(=O)N1)C(=O)N[C@@H](C2)C(=O)N[C@@H]([C@@H](C)O)C(=O)NCC(=O)N3`, in assay [1], the “inhibition zone … (DSM 40091)” value was 7 mm. Moreover, the “inhibition zone … (ATCC 6633)” value in assay [2] amounted to 9 mm.

What is called zone of inhibition is the size of the clear area around the sample on an inoculated plate. High values mean wide suppression of growth, low ones little suppression of growth.

The values above are taken from patent US20110144001A1, “HIGHLY BRIDGED PEPTIDES FROM ACTINOMADURA NAMIBIENSIS” (SANOFI-AVENTIS, priority 2008, published 2011).
